Test system: ATP blood levels
Experiment: Phase 1 SAD/MAD: blood ATP (LC-MS/MS) in healthy volunteers
Assay type: in vivo, human
Details: for Median Percentage Change in ATP Levels / Mean Percentage Change in ATP Levels: HV 400 mg QD
Method: In this study, SAD/MAD cohorts are randomized (3 to 1) to receive Compound 1 or placebo (P). Compound 1 was evaluated first in 4 healthy SAD cohorts and 4 healthy MAD (14-day dosing period) cohorts. Based on the safety, and PK/PD profile from HS, Compound 1 is then evaluated in 1 SCD SAD cohort and 2 SCD MAD cohorts. Specifically, based on the safety and pharmacokinetic/pharmacodynamics (PK/PD) profile in healthy volunteer studies, Compound 1 is evaluated in patients (pts) with SCD, first in a single dose (SD or SAD) cohort and then in multiple-dose (MD or MAD) cohorts (14-day and 12-week). Safety assessments include AEs, vital signs, ECGs and laboratory parameters. PK/PD blood sampling was performed on Day 1 (SAD/MAD) and Day 14 (MAD) and up to 72 h after the last dose and at the end-of-study visit. PD parameters included 2,3-DPG, ATP, and p50 in all cohorts with additional PD studies (including oxygen scan) performed only in the SCD cohorts. PD parameters included 2,3-DPG, ATP, p50, RBC deformability with controlled deoxygenation and reoxygenation (Lorrca® oxygen scan) and varying osmolality (Lorrca® osmoscan)). To maintain study blind, pt identifiers were removed when needed.
In the MAD cohorts, the subjects' blood ATP levels were measured […] by a qualified LC-MS/MS method for the quantitation of ATP in blood. […] Table 20A reports the median percentage change in blood ATP levels, relative to baseline, measured over time after the first dose on days 1 and 14 in healthy volunteers who received daily doses of Compound 1 (100 mg BID, 200 mg BID, 300 mg BID, or 400 mg QD) or placebo for 14 days. Table 20B reports the mean percentage change in ATP blood levels, relative to baseline, measured over time after the first dose on days 1 and 14 in healthy volunteers who received daily doses of Compound 1 (100 mg BID, 200 mg BID, 300 mg BID, or 400 mg QD) for 14 days.
The following procedures are employed for the analysis of ATP and 2,3-DPG in human whole blood K2EDTA using a protein precipitation extraction procedure and analysis by LC-MS/MS.
The following procedures are used for sample extraction prior to analysis via LC-MS/MS. 15.0 μL of the calibration standards, quality controls, matrix blanks, and samples are aliquoted into a 96-well plate. 50.0 μL of the internal standard spiking solution is added to all samples on the plate, with the exception of the matrix blank samples; 50.0 μL of water is added to the matrix blank samples. Subsequently, 150 μL of water is added to all samples on the plate. The plate is then covered and agitated by vortex at high speed for ten minutes, after which 750 μL of methanol is added to all samples on the plate. The plate is covered and agitated by vortex for approximately 1 minute. The plate is then centrifuged at approximately 3500 RPM at approximately 4° C. for five minutes. After centrifugation, a liquid handler is used to transfer 50 μL of each sample to a new 96-well plate, and 200 μL of acetonitrile is added to all samples on the plate. The newly prepared plate is covered and agitated by vortex for approximately 1 minute. The plate is then centrifuged at approximately 3500 RPM at approximately 4° C. for 2 minutes.

[1] = Day 1, 24 h after first daily dose
[2] = Day 14, 0 h after first daily dose
[3] = Day 14, 6 h after first daily dose
[4] = Day 14, 8 h after first daily dose
[5] = Day 14, 12 h after first daily dose
[6] = Day 14, 16 h after first daily dose
[7] = Day 14, 24 h after first daily dose
[8] = Day 14, 48 h after first daily dose
[9] = Day 14, 72 h after first daily dose
[10] = HV single 200 mg, 0 h after dose
[11] = HV single 200 mg, 6 h after dose
[12] = HV single 200 mg, 8 h after dose
[13] = HV single 200 mg, 12 h after dose
[14] = HV single 200 mg, 16 h after dose
[15] = HV single 200 mg, 24 h after dose
[16] = HV single 200 mg, 36 h after dose
[17] = HV single 200 mg, 48 h after dose
[18] = HV single 200 mg, 72 h after dose
[19] = HV single 400 mg, 0 h after dose
[20] = HV single 400 mg, 6 h after dose
[21] = HV single 400 mg, 8 h after dose
[22] = HV single 400 mg, 12 h after dose
[23] = HV single 400 mg, 16 h after dose
[24] = HV single 400 mg, 24 h after dose
[25] = HV single 400 mg, 36 h after dose
[26] = HV single 400 mg, 48 h after dose
[27] = HV single 400 mg, 72 h after dose
[28] = HV single 700 mg, 0 h after dose
[29] = HV single 700 mg, 6 h after dose
[30] = HV single 700 mg, 8 h after dose
[31] = HV single 700 mg, 12 h after dose
[32] = HV single 700 mg, 16 h after dose
[33] = HV single 700 mg, 24 h after dose
[34] = HV single 700 mg, 36 h after dose
[35] = HV single 700 mg, 48 h after dose
[36] = HV single 700 mg, 72 h after dose
[37] = HV single 1000 mg, 0 h after dose
[38] = HV single 1000 mg, 6 h after dose
[39] = HV single 1000 mg, 8 h after dose
[40] = HV single 1000 mg, 12 h after dose
[41] = HV single 1000 mg, 16 h after dose
[42] = HV single 1000 mg, 24 h after dose
[43] = HV single 1000 mg, 36 h after dose
[44] = HV single 1000 mg, 48 h after dose
[45] = HV single 1000 mg, 72 h after dose

O=C([C@H](CO)c1ccccc1)N1CC2=C(C1)CN(S(=O)(=O)c1cnc3c(c1)OCCO3)C2 (single isomer, unassigned) [Compound 1]
Median Percentage Change in ATP Levels (Day 1, 16 h after first daily dose): −1.8% | Mean Percentage Change in ATP Levels [1]: 1.9% | Median Percentage Change in ATP Levels [1]: 0.0% | Mean Percentage Change in ATP Levels [2]: 54% | Median Percentage Change in ATP Levels [2]: 52% | Mean Percentage Change in ATP Levels [3]: 48% | Median Percentage Change in ATP Levels [3]: 52% | Mean Percentage Change in ATP Levels [4]: 51% | Median Percentage Change in ATP Levels [4]: 52% | Mean Percentage Change in ATP Levels [5]: 50% | Median Percentage Change in ATP Levels [5]: 56% | Mean Percentage Change in ATP Levels [6]: 51% | Median Percentage Change in ATP Levels [6]: 51% | Mean Percentage Change in ATP Levels [7]: 57% | Median Percentage Change in ATP Levels [7]: 52% | Mean Percentage Change in ATP Levels [8]: 60% | Median Percentage Change in ATP Levels [8]: 61% | Mean Percentage Change in ATP Levels [9]: 51% | Median Percentage Change in ATP Levels [9]: 54% | Mean Maximum Percent Change from Baseline, ATP (HV MAD, all doses and timepoints (N = 36)): 68.5% | Mean Maximum Percent Change from Baseline, ATP (HV SAD, all doses and timepoints (N = 24)): 24.4% | mean percentage change in ATP blood levels [10]: 0% | median percentage change in ATP blood levels [10]: 0% | mean percentage change in ATP blood levels [11]: 0.7% | median percentage change in ATP blood levels [11]: −4.5% | mean percentage change in ATP blood levels [12]: −2.1% | median percentage change in ATP blood levels [12]: −1.7% | mean percentage change in ATP blood levels [13]: 2.0% | median percentage change in ATP blood levels [13]: 1.7% | mean percentage change in ATP blood levels [14]: −6.9% | median percentage change in ATP blood levels [14]: −6.6% | mean percentage change in ATP blood levels [15]: 3.4% | median percentage change in ATP blood levels [15]: 4.7% | mean percentage change in ATP blood levels [16]: 6.2% | median percentage change in ATP blood levels [16]: 4.1% | mean percentage change in ATP blood levels [17]: 2.0% | median percentage change in ATP blood levels [17]: −2.4% | mean percentage change in ATP blood levels [18]: 12% | median percentage change in ATP blood levels [18]: 11% | mean percentage change in ATP blood levels [19]: 0% | median percentage change in ATP blood levels [19]: 0% | mean percentage change in ATP blood levels [20]: 2.2% | median percentage change in ATP blood levels [20]: 4.1% | mean percentage change in ATP blood levels [21]: −2.5% | median percentage change in ATP blood levels [21]: −8.8% | mean percentage change in ATP blood levels [22]: 5.6% | median percentage change in ATP blood levels [22]: 7.2% | mean percentage change in ATP blood levels [23]: 5.6% | median percentage change in ATP blood levels [23]: 4.5% | mean percentage change in ATP blood levels [24]: 15% | median percentage change in ATP blood levels [24]: 13% | mean percentage change in ATP blood levels [25]: 18% | median percentage change in ATP blood levels [25]: 16% | mean percentage change in ATP blood levels [26]: 14% | median percentage change in ATP blood levels [26]: 14% | mean percentage change in ATP blood levels [27]: 14% | median percentage change in ATP blood levels [27]: 18% | mean percentage change in ATP blood levels [28]: 0% | median percentage change in ATP blood levels [28]: 0% | mean percentage change in ATP blood levels [29]: −2.8% | median percentage change in ATP blood levels [29]: −2.6% | mean percentage change in ATP blood levels [30]: −2.9% | median percentage change in ATP blood levels [30]: −1.6% | mean percentage change in ATP blood levels [31]: −5.5% | median percentage change in ATP blood levels [31]: −5.4% | mean percentage change in ATP blood levels [32]: −1.3% | median percentage change in ATP blood levels [32]: −2.4% | mean percentage change in ATP blood levels [33]: 13% | median percentage change in ATP blood levels [33]: 12% | mean percentage change in ATP blood levels [34]: 4.5% | median percentage change in ATP blood levels [34]: 3.6% | mean percentage change in ATP blood levels [35]: 2.5% | median percentage change in ATP blood levels [35]: 0% | mean percentage change in ATP blood levels [36]: 10% | median percentage change in ATP blood levels [36]: 5.1% | mean percentage change in ATP blood levels [37]: 0% | median percentage change in ATP blood levels [37]: 0% | mean percentage change in ATP blood levels [38]: −1.7% | median percentage change in ATP blood levels [38]: 5.1% | mean percentage change in ATP blood levels [39]: 4.0% | median percentage change in ATP blood levels [39]: 3.1% | mean percentage change in ATP blood levels [40]: 2.9% | median percentage change in ATP blood levels [40]: 7.3% | mean percentage change in ATP blood levels [41]: 6.9% | median percentage change in ATP blood levels [41]: 2.4% | mean percentage change in ATP blood levels [42]: 12% | median percentage change in ATP blood levels [42]: 14% | mean percentage change in ATP blood levels [43]: 13% | median percentage change in ATP blood levels [43]: 16% | mean percentage change in ATP blood levels [44]: 14% | median percentage change in ATP blood levels [44]: 10% | mean percentage change in ATP blood levels [45]: 22% | median percentage change in ATP blood levels [45]: 20% | lag of maximum increase in blood ATP behind maximum plasma concentration (HV single 200, 400, 700 or 1000 mg): at least 24 hours
